Test [1] has as its system platelets. Description: ABT-737 administration to mice, peripheral blood platelet counts. The format is in vivo, mouse. As to the method:
Animals were bled 2-24 h afterwards and platelet counts determined. […] Platelet counts (blue symbols; left axis) were determined 2-96 h after a single dose of ABT-737 (red arrow). […] Orange symbols represent serum TPO levels (right axis). […] Platelet counts were determined before and 8 h after a single dose of ABT-737 (red arrows) given at weekly intervals. […] (E) Synchronizing platelets. […] Wild type C57BL/6 mice were treated with APS, and then injected with ABT-737 (red arrows) either 2 or 7 days afterwards. Absolute platelet counts and the % of reticulated platelets were measured. The top panels show representative flow cytometric profiles following thiazole orange staining before or after ABT-737 injections. The bottom panels show platelet counts prior to or 2 h post ABT-737 injection. Data in (B), (C), (E) and (F) represent means±SD of 3-6 mice at each time point. […]
The hematocrit, platelet and white cell count, and differential were determined by using either manual or automated (Advia 120) counting techniques. In most experiments, with the exception of data shown in FIGS. 1A and 6E, the data was collected from male mice. Clonal cultures of 2.5×10^4 adult bone marrow cells or 5×10^4 spleen cells in 1 mL of 0.3% agar in DMEM supplemented with newborn calf serum (20%) were stimulated with a mixture of 100 ng/mL murine stem cell factor, 10 ng/mL murine IL-3, 4 units/mL human EPO and incubated for 7 days at 37° C. in a fully humidified atmosphere of 10% CO2 in air. Agar cultures were fixed, sequentially stained for acetylcholinesterase, Luxol fast blue and hematoxylin; the cellular composition of each colony determined at ×100-400 magnification. Megakaryocyte counts were performed by manual counting from sections of sternum and spleen after staining with hematoxylin/eosin. A minimum of 10 high-power fields (×200) were scored.
Mice were injected intra-peritoneally with 75 mg/kg of ABT-737 given as a single dose or daily. A stock solution of ABT-737 (1 g/mL in DMSO) was diluted in a mixture of 30% propylene glycol, 5% Tween 80, 65% D5W (5% dextrose in water), pH 4-5; the final concentration of DMSO was less than 1%.

Test [2] relates to human platelet rich plasma. Description: Platelet aggregometry on human platelet rich plasma. The format is cell-based. As for the experimental part: Platelet aggregometry performed on human platelet rich plasma (250×10^9/L platelets) pre-incubated for 1 h with 1 μM ABT-737 (green line) or not (red) before stimulation with (A) collagen (4 μg/ml) or (B) ADP (10 μM).
Whole blood was collected in sodium citrate (3.2%) and platelet rich plasma obtained by centrifugation at 800 rpm for 12 min at room temperature. Platelet poor plasma was then obtained by centrifugation of remaining blood at 3,000 rpm for 15 min at room temperature. Platelet count was adjusted to 250×10^9/L using platelet poor plasma. Diluted platelet rich plasma was placed in an aggregometer cuvette warmed to 37° C. and stirred whilst light transmission through the plasma was measured in a 4 channel platelet aggregometer. After baseline measurements were obtained, ADP or Collagen (both from Edward Keller) was added to induce aggregation.

In test [3] the test system is mouse platelets. In words: Ex vivo platelet assays, mouse platelets in culture (platelet counts, caspase immunoblotting). The format is cell-based. To be noted: ABT-737 1 μM. As for the experimental part:
(A) Expression of Bcl-2 family proteins in platelets. […] (C) ABT-737 triggers caspase activation in platelets. […] (F) Absence of Bak protects platelets against ABT-737.
Cell death was induced with ABT-737 (up to 5 μM, Abbott Laboratories (Oltersdorf et al., 2005 (supra)), etoposide (up to 100 μM, Pharmacia) or staurosporine (10 μM, Sigma); 50 μM qVD.OPh (Enzyme Systems) was also added in some experiments. Cell viability was determined by flow cytometry for cells that exclude propidium iodide or manual counting using a hemacytometer.
Other antibodies for immunoblotting were mouse monoclonal anti-Bcl-xL (2H12; BD), anti-Bcl-2 (clone 7; BD), anti-human Bcl-2 (Bcl-2-100), anti-actin (AC40; Sigma), anti-Bax (2D2 and 5B7; Sigma), anti-Mcl-1 (clone 22: BD); rat monoclonal anti-Mcl-1 (14C11; D Huang, unpublished), rabbit polyclonal anti-Bak (B5897: Sigma), anti-Mcl-1 (Rockland), anti-caspase-3 (585; gift of Y. Lazebnik), anti-cleaved p17 fragment of caspase-3 (AB3623; Chemicon), anti-gelsolin (gift of D Kwiatkowski) (Kothakota et al., Science, 278:294-298, 1997); hamster monoclonal anti-mouse Bcl-2 (3F11; BD). Secondary antibodies included HRP-conjugated anti-rat or anti-hamster IgG (SouthernBiotech), anti-mouse or anti-rabbit IgG (Chemicon), and anti-mouse IgG Fcγ chain specific antibody (Jackson ImmunoResearch). The proteins were detected using Enhanced ChemiLuminescence (ECL; GE Healthcare).
Platelets were counted manually in triplicate using a hemacytometer.
On the technique in general: A western blot detects proteins with antibodies after separation by electrophoresis.

The subject of test [4] is human platelets. The conditions noted are these: 1 μM for 1 or 2 h.
Protocol: Human whole blood was obtained with informed consent (approved by the Institutional Review Board), Platelet rich plasma was obtained and incubated at room temperature with drug or control for up to 2 h. Platelets were counted manually in triplicate using a hemacytometer.
For test [5], the system named is Bcl-2, Bcl-xL, Bcl-w, Mcl-1, A1. To be noted: Oltersdorf et al., 2005; van Delft et al., 2006; cited from earlier work.

Entries after “also recorded” stand apart in the source; their conditions may differ. Bounds are passed on as bounds.

`CN(C)CC[C@H](CSc1ccccc1)Nc1ccc(S(=O)(=O)NC(=O)c2ccc(N3CCN(Cc4ccccc4-c4ccc(Cl)cc4)CC3)cc2)cc1[N+](=O)[O-]` [ABT-737]: the “effect of ABT-737 on newly synthesized young platelets” value in test [1] (ABT-737 injected 2 days post-APS, counts 2 h post injection) is given as “highly resistant”. For the same molecule, in test [1] (ABT-737 injected 7 days post APS, counts 2 h post injection), the “effect of ABT-737 on aged platelets” value was “susceptible”. Further, the “effect of ABT-737 on platelets in Bak^-/- Bax^+/- mice” value in test [1] (Bak^-/- Bax^+/- mice, single dose 75 mg/kg, 0-24 h, 75 mg/kg) is on record as “entirely refractory; also recorded: enthely refractory; also recorded: completely protected”. For the same molecule, the “effect of ABT-737 on platelet counts in Bak^-/- mice” value in test [1] (Bak^-/- mice, single dose 75 mg/kg, 0-24 h, 75 mg/kg) is “significantly buffered; also recorded: unaffected by ABT-737 at early time points (up to 4 h)”. Moreover, the “impact of loss of Bax alone on the effect of ABT-737” value in test [1] (Bax-deficient mice (data not shown)) is given as “little impact”. In addition, in test [1] (Bcl-x^+/- vs wild type and Bcl-2^+/- mice, single dose 75 mg/kg, 2-24 h, 75 mg/kg), the “ABT-737-induced thrombocytopaenia in Bcl-x^+/- mice” value was “exacerbates”. Also, in test [1] (daily injections continued for 14 days), the “platelet levels during continued daily ABT-737” value is given as 60-70 % of normal. In addition, the “platelet counts with weekly ABT-737” value in test [1] (single dose given at weekly intervals, counts before and 8 h after) is recorded as “acute thrombocytopaenia ensued in a cyclical manner; also recorded: comparable drop in platelets each time”. Further, in test [1] (wild type C57BL/6 mice (data not shown)), the “dose dependence of thrombocytopaenia” value is “dose dependent”. In addition, the “platelet counts after recovery from a single dose” value in test [1] (wild type C57BL/6 mice, 2-96 h after a single dose) is listed as “rebound thrombocytosis by day 4”. Also, the “time for platelet counts to recover to normal levels” value in test [1] (wild type C57BL/6 mice, after a single dose) is on record as at most 3 days. The “responses to other agonists (Epinephrine, Arachidonic Acid, Ristocetin)” value in test [2] (1 μM ABT-737 (data not shown)) is recorded as “did not alter responses”. Also, in test [2] (pre-incubated 1 h with 1 μM ABT-737, collagen 4 μg/ml or ADP 10 μM), the “platelet activation / aggregation in response to collagen or ADP” value is “did not trigger platelet activation or adversely impact upon the ability of platelets to aggregate; also recorded: did not induce platelet aggregation or affect that with agonists”. For the same molecule, in test [3] (counted after 1 h), the “loss of wild type platelets in culture” value is listed as “Bak-mediated caspase-dependent loss of platelets”. Also, the “caspase-3 activation and gelsolin cleavage in cultured platelets” value in test [3] (immunoblotting) is “triggered cleavage and full activation of caspase-3 as well as cleavage of gelsolin; also recorded: induced complete caspase-3 activation and gelsolin cleavage”. In test [3] (Bak^-/- vs wild type platelets, 1 h), the “action of ABT-737 on viability of Bak^-/- platelets in culture” value is listed as “markedly blunted”. Also, in test [4], the “susceptibility of human platelets to ABT-737” value is reported as “caspase-dependent susceptibility”. In test [5], the “selectivity among pro-survival Bcl-2 family proteins” value is “selectively targets Bcl-2, Bcl-xL and Bcl-w but not the other pro-survival proteins Mcl-1 or A1”.

Source of the values: patent US20100292200A1, “Methods for Modulating Apoptosis in Platelets” (The Walter and Eliza Hall Institute of Medical Research, priority 2006, published 2010).
